These results are taken from US10105351B2, “Neurofibromatoses therapeutic agents and screening for same” (University of Central Florida Research Foundation, Inc., priority 2012, dated 2018).

In data set [1] the test system is merlin-null Schwann cells. In words: Primary assay: live cell protease assay (CellTiter-Fluor), cell viability. The note with it: 10 uM; 8 replicates, 384 well plate; mean and SD of four assays, two independently derived merlin-null Schwann cell lines at P13-23.
Procedure: Cell viability was measured with the CellTiter-Fluor Live Protease Assay (Promega). […] One way ANOVA Kurskal-Wallis test was used with a Dunn's Multiple Comparison post-test.
(§1) The compounds were tested at 10 uM in 8 replicates in a 384-well format using the live cell protease assay (CellTiter-Fluor) and the orthogonal ATP-based assay (CellTiter-GLO) (both from Promega). We tested the compounds on two Merlin-null Schwann cell lines, L1, (used in the LOPAC screen) at passages ranging from 13-23 and an independently-derived line, L2, tested at passage 20 and 21.
Data set [2] relates to merlin-null Schwann cells. In words: Orthogonal ATP-based luminescence cell viability assay (CellTiter-GLO). Particulars: 10 uM; average of two assays with one cell line at P18-23. (Cellular ATP, detected with luciferase, serves as a proxy for viable cell number.)
The subject of data set [3] is normal nf2^flox2/flox2 Schwann cells. Nature of the data set: Selectivity assay: cell viability of normal Schwann cells. Particulars: 10 uM; one assay with mouse nf2^flox2/flox2 Schwann cells at P2.
Procedure: as §1

Where a name gives a salt, the structure may show the parent alone.

On to `CCn1cnc2c(Nc3cccc(Cl)c3)nc(N[C@@H]3CCCC[C@@H]3N)nc21` (relative stereo) [CGP-74514A hydrochloride, N2-(cis-2-Aminocyclohexyl)-N6-(3-chlorophenyl)-9-ethyl-9H-purine-2,6-diamine hydrochloride], for which, in data set [1], the “Primary Assay (m +/− sd), cell viability” value is given as 35 +/− 7 % of DMSO Control. Moreover, in data set [2], the “Orthogonal Assay Average of two, cell viability” value (“Orthogonal Assay Average of two” for short) is listed as 16.1 % of DMSO Control. Also, in data set [3], the “Selectivity Assay, cell viability” value was 33 % of DMSO Control.

For the molecule `CC[n+]1c(C=CC=C2N(C)c3ccccc3C2(C)C)sc2ccccc21.[I-]` [AC-93253 iodide, 2-[3-(1,3-Dihydro-1,3,3-trimethyl-2H-indol-2-ylidene)-1-propenyl]-3-ethyl-benzothiazolium iodide], in data set [1], the “Primary Assay (m +/− sd), cell viability” value is reported as 41 +/− 6 % of DMSO Control. Besides, the “Orthogonal Assay Average of two” value in data set [2] is reported as 24.3 % of DMSO Control. Further, in data set [3], the “Selectivity Assay, cell viability” value is listed as 28 % of DMSO Control.

On to `O=C1NC(=O)/C(=C/c2ccc3nccnc3c2)S1` [AS605240, 5-(6-Quinoxalinylmethylene)-2,4-thiazolidinedione], for which the “Primary Assay (m +/− sd), cell viability” value in data set [1] is 35 +/− 2 % of DMSO Control. The “Orthogonal Assay Average of two” value in data set [2] is 40.1 % of DMSO Control. Also, the “Selectivity Assay, cell viability” value in data set [3] is 78 % of DMSO Control.

Regarding `O=C1Nc2cc(Br)ccc2C1C1Nc2ccccc2C1NO` (centres unmarked) [BIO, (2′Z,3′E)-6-Bromoindirubin-3′-oxime], the “Primary Assay (m +/− sd), cell viability” value in data set [1] was 20 +/− 8 % of DMSO Control. The “Orthogonal Assay Average of two” value in data set [2] is reported as 0.8 % of DMSO Control. The “Selectivity Assay, cell viability” value in data set [3] was 31 % of DMSO Control.

As to `C[C@@]12C(=O)OC(=O)[C@]1(C)[C@H]1CC[C@@H]2O1` [Cantharidin, cantharidin], the “Primary Assay (m +/− sd), cell viability” value in data set [1] is reported as 34 +/− 14 % of DMSO Control. In data set [2], the “Orthogonal Assay Average of two” value is on record as 35.2 % of DMSO Control. Moreover, the “Selectivity Assay, cell viability” value in data set [3] was 78 % of DMSO Control.

For the molecule `CC(C)(C)c1ccc(C(=O)CCCN2CCC(OC(c3ccccc3)c3ccccc3)CC2)cc1` [Ebastine, ebastine], the “Primary Assay (m +/− sd), cell viability” value in data set [1] is 17 +/− 3 % of DMSO Control. In addition, in data set [2], the “Orthogonal Assay Average of two” value is on record as 0.1 % of DMSO Control.

Take `OCCN1CCN(CCCN2c3ccccc3Sc3ccc(C(F)(F)F)cc32)CC1` [Fluphenazine dihydrochloride]: in data set [1], the “Primary Assay (m +/− sd), cell viability” value was 71 +/− 6 % of DMSO Control. Also, the “Orthogonal Assay Average of two” value in data set [2] is 45.6 % of DMSO Control. Also, the “Selectivity Assay, cell viability” value in data set [3] is recorded as 43 % of DMSO Control.

For `O=C1Nc2ccc(I)cc2C1=Cc1cc(Br)c(O)c(Br)c1` [GW5074, 3-(3,5-Dibromo-4-hydroxybenzyliden)-5-iodo-1,3-dihydroindol-2-one], the “Primary Assay (m +/− sd), cell viability” value in data set [1] is recorded as 24 +/− 7 % of DMSO Control. Besides, the “Orthogonal Assay Average of two” value in data set [2] is 36.4 % of DMSO Control. The “Selectivity Assay, cell viability” value in data set [3] is 31 % of DMSO Control.

For the molecule `CC(C)(Sc1ccc(CCN(CCCCC2CCCCC2)C(=O)NC2CCCCC2)cc1)C(=O)O` [GW7647, (2-(4-(2-(1-Cyclohexanebutyl)-3-cyclohexylureido)ethyl)-phenyl-thio)-2-methyl-propionic acid], in data set [1], the “Primary Assay (m +/− sd), cell viability” value is reported as 20 +/− 5 % of DMSO Control. In addition, in data set [2], the “Orthogonal Assay Average of two” value was 6.3 % of DMSO Control. For the same molecule, the “Selectivity Assay, cell viability” value in data set [3] is on record as 32 % of DMSO Control.

Consider `O=C(CCCN1CCC(O)(c2ccc(Cl)cc2)CC1)c1ccc(F)cc1` [Haloperidol], for which the “Primary Assay (m +/− sd), cell viability” value in data set [1] is given as 96 +/− 4 % of DMSO Control. The “Orthogonal Assay Average of two” value in data set [2] is listed as 88.8 % of DMSO Control. Also, the “Selectivity Assay, cell viability” value in data set [3] was 78 % of DMSO Control.

As for `CC(C)c1ccc2c(c1)c(SC(C)(C)C)c(CC(C)(C)C(=O)O)n2Cc1ccc(Cl)cc1` [L663,536, 3-[3-tert-Butylthio-1-(4-chlorobenzyl)-5-isopropyl-1H-indol-2-yl]-2,2-dimethylpropionic acid, sodium salt hydrate], the “Primary Assay (m +/− sd), cell viability” value in data set [1] was 16 +/− 3 % of DMSO Control. In data set [2], the “Orthogonal Assay Average of two” value is given as 0.1 % of DMSO Control. For the same molecule, the “Selectivity Assay, cell viability” value in data set [3] is reported as 31 % of DMSO Control.

Turning to `COc1ccc(Br)cc1S(=O)(=O)NC(=O)/C=C/c1ccccc1Cc1ccc2ccccc2c1` [L-798106, (2E)-N-[(5-bromo-2-methoxyphenyl)sulfonyl]-3-[2-(2-naphthalenylmethyl)phenyl]-2-propenamide], the “Primary Assay (m +/− sd), cell viability” value in data set [1] is on record as 35 +/− 13 % of DMSO Control. For the same molecule, the “Orthogonal Assay Average of two” value in data set [2] is 37.6 % of DMSO Control. Moreover, the “Selectivity Assay, cell viability” value in data set [3] is given as 33 % of DMSO Control.

Consider `CC[C@H](C)C(=O)O[C@H]1CCC=C2C=C[C@H](C)[C@H](CC[C@@H]3C[C@@H](O)CC(=O)O3)[C@H]21` [Mevastatin, mevastatin], for which the “Primary Assay (m +/− sd), cell viability” value in data set [1] was 81 +/− 11 % of DMSO Control. Further, the “Orthogonal Assay Average of two” value in data set [2] is 85.1 % of DMSO Control. The “Selectivity Assay, cell viability” value in data set [3] was 74 % of DMSO Control.

In the case of `COCC(=O)O[C@]1(CCN(C)CCCc2nc3ccccc3[nH]2)CCc2cc(F)ccc2[C@@H]1C(C)C` [Mibefradil dihydrochloride hydrate, mibefradil], the “Primary Assay (m +/− sd), cell viability” value in data set [1] is listed as 67 +/− 9 % of DMSO Control. Also, the “Orthogonal Assay Average of two” value in data set [2] is 53.3 % of DMSO Control. Moreover, the “Selectivity Assay, cell viability” value in data set [3] was 32 % of DMSO Control.

With `O=C1c2c(O)ccc(O)c2C(=O)c2c(NCCNCCO)ccc(NCCNCCO)c21` [Mitoxantrone dihydrochloride, 1,4-Dihydroxy-5,8-bis[[2-[(2-hydroxyethyl)amino]ethyl]amino]-9,10-anthracenedione], the “Primary Assay (m +/− sd), cell viability” value in data set [1] is given as 39 +/− 6 % of DMSO Control. Besides, in data set [2], the “Orthogonal Assay Average of two” value is reported as 36.8 % of DMSO Control. In addition, the “Selectivity Assay, cell viability” value in data set [3] is listed as 34 % of DMSO Control.

Take `CCN(CC)CCCCNc1ncc2cc(-c3c(Cl)cccc3Cl)c(NC(=O)NC(C)(C)C)nc2n1` [PD-161570, 1-tert-Butyl-3-[6-(2,6-dichlorophenyl)-2-[[4-(diethylamino)butyl]amino]pyrido[2,3-d]pyrimidin-7-yl]urea]: in data set [1], the “Primary Assay (m +/− sd), cell viability” value was 60 +/− 12 % of DMSO Control. Also, the “Orthogonal Assay Average of two” value in data set [2] is reported as 62.4 % of DMSO Control. In addition, the “Selectivity Assay, cell viability” value in data set [3] was 47 % of DMSO Control.

With `O=C(O)c1ccc2ccccc2c1O.OCc1cc(C(O)CNCCCCCCOCCCCc2ccccc2)ccc1O` (centres unmarked) [Salmeterol xinafoate, salmeterol xinafoate], in data set [1], the “Primary Assay (m +/− sd), cell viability” value is given as 57 +/− 9 % of DMSO Control. Besides, the “Orthogonal Assay Average of two” value in data set [2] is 73.7 % of DMSO Control. Also, the “Selectivity Assay, cell viability” value in data set [3] was 57 % of DMSO Control.

Turning to `O=C(CCCN1CCC2(CC1)C(=O)NCN2c1ccccc1)c1ccc(F)cc1` [Spiroperidol], the “Primary Assay (m +/− sd), cell viability” value in data set [1] is 90 +/− 6 % of DMSO Control. The “Orthogonal Assay Average of two” value in data set [2] is given as 84.3 % of DMSO Control. For the same molecule, in data set [3], the “Selectivity Assay, cell viability” value is reported as 85 % of DMSO Control.

With `CSc1ccc2c(c1)N(CCC1CCCCN1C)c1ccccc1S2` (centres unmarked) [Thioridazine hydrochloride, thioridazine], the “Primary Assay (m +/− sd), cell viability” value in data set [1] is given as 71 +/− 13 % of DMSO Control. In addition, the “Orthogonal Assay Average of two” value in data set [2] is 67.9 % of DMSO Control. In addition, the “Selectivity Assay, cell viability” value in data set [3] is reported as 33 % of DMSO Control.

As for `CN1CCN(CCCN2c3ccccc3Sc3ccc(C(F)(F)F)cc32)CC1` [Trifluoperazine dihydrochloride, trifluoperazine], the “Primary Assay (m +/− sd), cell viability” value in data set [1] is 78 +/− 6 % of DMSO Control. Also, the “Orthogonal Assay Average of two” value in data set [2] was 47 % of DMSO Control. Moreover, in data set [3], the “Selectivity Assay, cell viability” value is recorded as 47 % of DMSO Control.
